The values that follow come from US20260224555A1, “NEW PHENYLQUINOLONE COMPOUND HAVING ANTIBACTERIAL AND ANTI-CANCER FUNCTIONS AND PREPARATION THEREOF” (AlphaMol Science Ltd (Shanghai), priority 2022, published 2026).

In general, MIC refers to the lowest concentration that inhibits growth of the organism. The term inhibition denotes how much of the control response was suppressed. As a reminder, the IC50 is the concentration that gives 50% inhibition. The low end stands for higher potency, the high end for lower potency.

Type in all cases: cell-based
One experiment deals with E. coli ATCC 25922. Kind of experiment: In vitro antibacterial activity assay (MIC, broth dilution). The note with it: Escherichia coli, ATCC25922. In general terms: Broth dilution looks for growth in wells or tubes with falling amounts of substance.
In a further experiment the test system is S. aureus ATCC 43300. The experiment is described as above. Conditions: Staphylococcus aureus, ATCC43300.
The subject of experiment [1] is Hela. Kind of experiment: In vitro anticancer activity test (MTT cell proliferation). The note with it: Homo sapiens, average proliferation inhibition rate at the dosage of 40 μM, read-out: Hela Average inhibition rate %. The method, then: The anticancer activity of the compounds was tested using an in vitro cancer cell tests. The specific test method is as follows:
1. Cell recovery and culture method: the cryovial was taken out from the liquid nitrogen container firstly, soaked directly in 37° C. warm water, and shaked from time to time to let it thaw as soon as possible. Then, the cryovial was transferred to a clean bench, and the lid was open. The cell suspension was taken into a centrifuge tube using a rubber-tipped dropper and more than 10 times the culture medium was added, mixed well, and centrifuged at 50 g for 5 minutes. Then, the supernatant was discarded, complete culture medium containing 10% fetal bovine serum was added to resuspend the cells, the cells was counted, the cell density was adjusted, and then inoculated into a culture bottle. The culture bottle was placed in a cell culture incubator at 5% CO2 and 37° C. The complete culture medium was replaced once the next day and the culture was continued.
2. Cell passaging method: adherent cells in the logarithmic growth phase were placed in a clean bench, the original culture medium was discarded, and washed three times with 1×PBS. An appropriate amount of 0.25% trypsin digestion solution was added to moisten the cells, and then the trypsin solution was aspirated. The cells were placed in a cell culture incubator at 5% CO2 and 37° C. for digestion for a suitable time, and observed under a microscope. When 90% of the cells become round, the cells were moved immediately to the clean bench and complete culture medium was added to terminate digestion. Then, the cells were dislodged by pipetting up and down with a rubber-tipped dropper to single cells. The cells were counted, and the cell density was adjusted. The cells were inoculated into a suitable culture bottle or dish, added enough complete culture medium, and placed in a cell culture incubator at 5% CO2 and 37° C. for static culture.
For suspension cells in the logarithmic phase, the original culture medium was directly centrifuged at 50 g for 5 minutes, the supernatant was discarded, and the cells were washed once with PBS and centrifuged. After discarding the supernatant, the complete culture medium was added and the cells were dispersed using a rubber-tipped dropper. The cells are counted, and the cell density was adjusted. The cells were inoculated into appropriate culture bottles or culture dishes, and sufficient complete culture medium was added, and the cells were cultured in a cell culture incubator at 5% CO2 and 37° C.
3. Cell proliferation assay: cells in good state in logarithmic phase were taken and appropriate amount of the cells was inoculated into 96-well plates according to the cell passage treatment method, with each well containing 180 μL complete medium. After the cells growth was recovered and the number of cells in each well is 5000±500, a drug was added for treatment.
After drug treatment during the experimental time, MTT solution with a final concentration of 0.5 mg/mL was added to each well, and placed in a cell culture incubator at 5% CO2 and 37° C. to allow a fully reaction of MTT with cells. After 4 hours, the solution in the 96-well plate was discarded, 100 µL of DMSO was added, and shaked to dissolve the formazan precipitated at the bottom of the plate, and the absorbance value of samples was detected at a wavelength of 570 nm using a microplate reader. Calculation method of cell viability rate:
Table 4 lists some compounds that have inhibitory effects against both of bacteria and cancer cells. In the table, the inhibitory effects against cancer cells are shown: the average proliferation inhibition rate (%) against cancer cells at the dosage of 40 μM.

Experiment [2] deals with Hela. The description is as above. Conditions: Homo sapiens.

Where two headings read alike, the source gives them in different places.

With `O=C(CCl)Nc1ncc(-c2cc3c(cc2F)c(=O)c(C(=O)O)cn3C2CC2)cc1F` [Example 135], the MIC in the experiment on E. coli ATCC 25922 (Table 3, read-out: MIC E. coli ATCC 25922) is at most 0.1 µg/mL; in the experiment with E. coli ATCC 25922 (Table 4, read-out: E. coli ATCC 25922 MIC), at most 1 µg/mL; in the experiment with S. aureus ATCC 43300 (Table 3, read-out: MIC S. aureus ATCC 43300), at most 0.1 µg/mL; in the experiment on S. aureus ATCC 43300 (Table 4, read-out: S. aureus ATCC 43300 MIC), at most 1 µg/mL. Moreover, the inhibition at 40 µM in the experiment with Hela [1] is at least 50%. Besides, the IC50 in the experiment on Hela [2] was in the range of 1 to 10 µM.
